Experimental findings from ChEMBL document CHEMBL2390895, “Design, synthesis and structure activity relationships of spirocyclic compounds as potent CCR1 antagonists” (Bioorg Med Chem Lett, 2013) are described below.

Data set [1] is described as follows: Clearance in human hepatocytes assessed per 10^6 cells. The data set is classed as ADME, cell-based, Hepatocyte. Conditions: read-out: CLH.
Data set [2] can be described thus: Clearance in rat hepatocytes assessed per 10^6 cells. The format is ADME, cell-based, Hepatocyte. Conditions: read-out: CLH.

Turning to `CNC(=O)c1ccc(O)cc1OC[C@@H](O)CN1CCC2(CC1)Cc1cc(Cl)ccc1O2`, the hepatocyte CLint in data set [1] was less than 4.6 µL/min/1e6 cells; in data set [2], 33 µL/min/1e6 cells. The like results for `CNC(=O)c1ccc(O)cc1OC[C@@H](O)CN1CCC2(CC1)Cc1cc(F)ccc1O2` were, in that order, 26 µL/min/1e6 cells and 22 µL/min/1e6 cells. The like results for `O=C(NC1CC1)c1ccc(O)cc1OC[C@@H](O)CN1CCC2(CC1)Cc1cc(Cl)ccc1O2` were, in that order, 10.6 µL/min/1e6 cells and 28 µL/min/1e6 cells.

With `Cc1ccc(C(=O)N2CC[C@H](O)C2)c(OC[C@@H](O)CN2CCC3(CC2)Cc2cc(F)ccc2O3)c1`, the hepatocyte CLint in data set [1] was found to be 10 µL/min/1e6 cells.

As to `Cc1ccc(C(=O)N2CC[C@H](O)C2)c(OC[C@@H](O)CN2CCC3(CC2)Cc2cc(Cl)ccc2O3)c1`, the hepatocyte CLint in data set [1] was 11 µL/min/1e6 cells. `O=C(c1ccc(F)cc1OC[C@@H](O)CN1CCC2(CC1)Cc1cc(Cl)ccc1O2)N1CC[C@H](O)C1`: the hepatocyte CLint in data set [1] is 6.8 µL/min/1e6 cells; in data set [2], less than 4 µL/min/1e6 cells. The like results for `O=C(c1cc(Cl)c(O)cc1OC[C@@H](O)CN1CCC2(CC1)Cc1cc(Cl)ccc1O2)N1CC[C@H](O)C1` were, in that order, less than 3 µL/min/1e6 cells and 8.1 µL/min/1e6 cells. In the same order, the values of `O=C(c1ccc(O)cc1OC[C@@H](O)CN1CCC2(CC1)Cc1cc(Cl)ccc1O2)N1CC[C@H](O)C1` are less than 3 µL/min/1e6 cells and 6.7 µL/min/1e6 cells. As for `O=C(c1ccc(O)cc1OC[C@@H](O)CN1CCC2(CC1)Cc1cc(Cl)ccc1O2)N1CCCC1`, the hepatocyte CLint in data set [1] was 9.6 µL/min/1e6 cells; in data set [2], 23 µL/min/1e6 cells. For the compound `O=C(c1ccc(O)cc1OC[C@@H](O)CN1CCC2(CC1)Cc1cc(Cl)ccc1O2)N1CCCCC1`, in data set [1], the hepatocyte CLint is 14 µL/min/1e6 cells. For the compound `O=C(NC1CC1)c1ccccc1OC[C@@H](O)CN1CCC2(CC1)Cc1cc(Cl)ccc1O2`, the hepatocyte CLint in data set [1] was 5.2 µL/min/1e6 cells; in data set [2], 45 µL/min/1e6 cells. With `COc1ccc(C(=O)NC2CC2)c(OC[C@@H](O)CN2CCC3(CC2)Cc2cc(Cl)ccc2O3)c1`, the hepatocyte CLint in data set [1] came out at 15 µL/min/1e6 cells. As for `O=C(NC1CC1)c1ccc(F)cc1OC[C@@H](O)CN1CCC2(CC1)Cc1cc(Cl)ccc1O2`, the values for the hepatocyte CLint in data set [1] and in data set [2] were 4.6 µL/min/1e6 cells and 20 µL/min/1e6 cells, respectively.
